The source of these data is patent US8017631B2, “Oxadiazole derivatives and their medical use” (Neurosearch A/S, priority 2005, dated 2011).

The target in data set [1] is T1, human nicotinic acetylcholine receptor subtype α4β2 (Homo sapiens, UniProt P17787+P43681).
T1 construct: expressed in transfected cells; host or cells: human HEK cells
As to the kind of experiment: Characterization of hα4β2 positive allosteric modulators using FLIPR. The data set is classed as cell-based. Here is the method:
The ability is determined relative to a maximal nicotine response (normally 100 μM). The activity is determined as a standard assay using a fluorometric method in a Fluorescent Image Plate Reader (FLIPR) as described below in more detail.
Full concentration/response curves are generated and EC50 values are calculated based on peak values. EC50 values (Effective Concentration) represent the concentration of the test substance, at which the nicotine-induced EC20-30 response is positively modulated such that the size of the response equals 50% of a maximal nicotine control response. The maximal positively modulated response is determined relative to the reference (nicotine) response.

SMILES strings stand for the structures.

For orientation: melting point means the temperature of the solid-liquid transition. Usually EC50 stands for the concentration giving half of the maximal effect.

T1 sequence (P43681 29-627 limits assumed): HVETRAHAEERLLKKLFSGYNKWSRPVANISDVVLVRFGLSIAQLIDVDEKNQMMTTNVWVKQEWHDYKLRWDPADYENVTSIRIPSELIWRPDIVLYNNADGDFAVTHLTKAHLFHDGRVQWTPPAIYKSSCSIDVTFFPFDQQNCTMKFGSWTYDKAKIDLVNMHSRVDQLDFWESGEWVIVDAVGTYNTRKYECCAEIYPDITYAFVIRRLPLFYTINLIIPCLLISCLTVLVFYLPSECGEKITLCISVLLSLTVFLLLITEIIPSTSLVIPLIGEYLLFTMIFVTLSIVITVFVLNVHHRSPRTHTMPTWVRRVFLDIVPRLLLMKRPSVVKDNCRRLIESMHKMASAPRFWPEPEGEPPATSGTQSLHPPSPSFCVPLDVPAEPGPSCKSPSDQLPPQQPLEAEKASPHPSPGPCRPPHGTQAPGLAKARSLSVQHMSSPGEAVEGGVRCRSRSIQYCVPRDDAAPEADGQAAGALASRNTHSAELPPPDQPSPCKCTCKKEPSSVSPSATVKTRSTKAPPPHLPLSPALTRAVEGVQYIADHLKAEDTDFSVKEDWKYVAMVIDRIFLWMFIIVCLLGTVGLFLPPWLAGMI
T1 sequence (P17787 26-502): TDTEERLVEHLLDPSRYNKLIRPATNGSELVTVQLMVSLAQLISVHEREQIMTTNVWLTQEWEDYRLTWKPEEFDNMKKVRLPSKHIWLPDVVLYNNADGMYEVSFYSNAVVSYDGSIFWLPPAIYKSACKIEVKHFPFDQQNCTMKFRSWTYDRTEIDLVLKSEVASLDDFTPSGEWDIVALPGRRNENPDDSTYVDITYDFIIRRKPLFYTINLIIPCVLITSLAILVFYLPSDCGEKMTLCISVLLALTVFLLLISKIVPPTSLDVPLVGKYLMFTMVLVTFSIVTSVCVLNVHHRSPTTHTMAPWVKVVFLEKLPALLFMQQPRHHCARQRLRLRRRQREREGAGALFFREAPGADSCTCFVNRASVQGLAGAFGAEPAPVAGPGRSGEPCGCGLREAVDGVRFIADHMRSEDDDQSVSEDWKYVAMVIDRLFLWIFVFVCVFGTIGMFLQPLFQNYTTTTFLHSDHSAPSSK

`N#Cc1ccc(-c2nc(-c3cccnc3)no2)o1` [Compound 6.2, 5-(3-Pyridin-3-yl-[1,2,4]oxadiazol-5-yl)-furan-2-carbonitrile]: the melting point was in the range of 141 to 144 °C.

Consider `O=[N+]([O-])c1ccc(-c2nc(-c3cccnc3)no2)o1` [Compound 1, 3-(5-(5-Nitro-furan-2-yl)-[1,2,4]oxadiazol-3-yl)-pyridine], for which the “Max. Response rel. to Nicotine” value in data set [1] (maximal positively modulated response relative to maximal nicotine response (normally 100 μM), HEK cells expressing hα4β2) was 97%. In data set [1] (positive modulation of sub-maximal nicotine (EC20-30) response, human HEK cells expressing hα4β2, peak values), this compound displayed an EC50 of 6.8 µM.
